From paper PMC4059246 (Journal of Medicinal Chemistry, 2014)
Like-named read-outs stand apart in the source and are kept apart here.

Key:
[1] = Human liver microsomal stability assay; settings: for In vitro stability compared with compound 2: human liver microsomes
RPA194 [2] = assay: Western blotting for RPA194 in U2OS cell lysates; format: cell-based
tumor burden = settings: mouse xenograft assays; cited from earlier work
NCL [3] = assay: Western blotting for NCL in U2OS cell lysates; settings: U2OS cells, 0, 0.1, 1, 10 μM, 3 h (Figure 4)
NCI60 cancer cell lines = settings: cited from earlier work
U2OS cells = assay: Cell viability, WST-1 assay; settings: U2OS cells, 0, 0.5, 5 μM, 48 h, WST-1 (Figure 5)
[4] = after 25 mg/kg ip dose; cited from earlier work
NCL [5] = settings: U2OS cells, 0.5 μM, 3 h (Figure 2B)
RPA194 [6] = settings: for Effect on expression of RPA194: U2OS cells, 0.5 μM, 3 h, representative images (Figure 2A)
[7] = U2OS cells, 0, 0.1, 1, 10 μM, 3 h (Figure 4)
[8] = RPA194 and NCL assays in U2OS cells

| Structure (SMILES) | Degradation of RPA194 by Western blotting (RPA194 [2]; [7]) | Effect on cell viability (U2OS cells) | Effect on nucleolar localization of NCL (NCL [5]) | other results |
| --- | --- | --- | --- | --- |
| CN(C)CCNC(=O)c1cccn2c(=O)c3cc4ccccc4cc3nc12 [Compound 2, N-[2-(Dimethylamino)ethyl]-12-oxo-12H-benzo[g]pyrido[2,1-b]quinazoline-4-carboxamide] | caused degradation of RPA194 | profound loss of cell viability | – | Major metabolites ([1]; identification of the major metabolites, method not described): N-dealkylation as one of several major metabolites; Tumor burden (tumor burden): reduced tumor burden; Expression of NCL by Western blotting (NCL [3]): largely unaffected except at very high (10 μM) concentrations; Anticancer activity (NCI60 cancer cell lines): broad and potent anticancer activity; half-life [4]: 2.5 h |
| O=C(NCCN1CCCCC1)c1cccn2c(=O)c3cc4ccccc4cc3nc12 [Compound 8, 12-Oxo-N-[2-(1-piperidyl)ethyl]-12H-benzo[g]pyrido[2,1-b]quinazoline-4-carboxamide] | caused degradation of RPA194 | profound loss of cell viability | decreased the nucleolar localization of NCL | In vitro stability compared with compound 2 [1]: did not improve stability |
| O=C(NCCN1CCCC1)c1cccn2c(=O)c3cc4ccccc4cc3nc12 [Compound 9, 12-Oxo-N-(2-pyrrolidin-1-ylethyl)-12H-benzo[g]pyrido[2,1-b]quinazoline-4-carboxamide] | – | profound loss of cell viability | decreased the nucleolar localization of NCL | In vitro stability compared with compound 2 [1]: did not improve stability; Effect on expression of RPA194 (RPA194 [6]): almost complete loss of expression of RPA194 |
| CCN(CC)CCNC(=O)c1cccn2c(=O)c3cc4ccccc4cc3nc12 [Compound 10, N-[2-(Diethylamino)ethyl]-12-oxo-12H-benzo[g]pyrido[2,1-b]quinazoline-4-carboxamide] | – | – | decreased the nucleolar localization of NCL | In vitro stability compared with compound 2 [1]: did not improve stability |
| CC(CN(C)C)NC(=O)c1cccn2c(=O)c3cc4ccccc4cc3nc12 (centres unmarked) [Compound 11, N-[2-(Dimethylamino)-1-methylethyl]-12-oxo-12H-benzo[g]pyrido[2,1-b]quinazoline-4-carboxamide] | caused degradation of RPA194 | – | decreased the nucleolar localization of NCL | – |
| O=C(NC1CNC1)c1cccn2c(=O)c3cc4ccccc4cc3nc12 [Compound 12, N-(Azetidin-3-yl)-12-oxo-12H-benzo[g]pyrido[2,1-b]quinazoline-4-carboxamide] | – | – | decreased the nucleolar localization of NCL | – |
| CC(CNC(=O)c1cccn2c(=O)c3cc4ccccc4cc3nc12)N(C)C (centres unmarked) [Compound 13, N-[2-(Dimethylamino)propyl]-12-oxo-12H-benzo[g]pyrido[2,1-b]quinazoline-4-carboxamide] | – | profound loss of cell viability | decreased the nucleolar localization of NCL | Effect on expression of RPA194 (RPA194 [6]): almost complete loss of expression of RPA194 |
| CN(C)CCCCNC(=O)c1cccn2c(=O)c3cc4ccccc4cc3nc12 [Compound 14, N-[4-(Dimethylamino)butyl]-12-oxo-12H-benzo[g]pyrido[2,1-b]quinazoline-4-carboxamide] | less potent | little or no activity | – | – |
| CN(C)CCNC(=O)c1cccn2c(=O)c3ccccc3nc12 [Compound 15, N-[2-(Dimethylamino)ethyl]-11-oxopyrido[2,1-b]quinazoline-6-carboxamide] | less potent | little or no activity | – | Decrease in potency relative to compound 2 (RPA194 [6]): over 40 fold; Effect on expression of RPA194 (RPA194 [6]): no effect |
| CCN(CC)CCNC(=O)c1cccn2c(=O)c3ccccc3nc12 [Compound 16, N-[2-(Diethylamino)ethyl]-11-oxopyrido[2,1-b]quinazoline-6-carboxamide] | – | – | – | Decrease in potency relative to compound 2 (RPA194 [6]; RPA194/NCL assays in U2OS cells, versus compound 2): over 40 fold |
| CN(C)CCOC(=O)c1cccn2c(=O)c3cc4ccccc4cc3nc12 [Compound 17, 2-(Dimethylamino)ethyl 12-Oxo-12H-benzo[g]pyrido[2,1-b]quinazoline-4-carboxylate] | – | – | – | Biological activity (in words) (RPA194 [6]; [8]): significant loss in potency |
| CN(C)CCN(C)C(=O)c1cccn2c(=O)c3cc4ccccc4cc3nc12 [Compound 18, N-[2-(Dimethylamino)ethyl]-N-methyl-12-oxo-12H-benzo[g]pyrido[2,1-b]quinazoline-4-carboxamide] | – | little or no activity | – | Degradation of RPA194 by Western blotting (RPA194 [2]): inactive |
| CC(C)N1CCN(C(=O)c2cccn3c(=O)c4cc5ccccc5cc4nc23)CC1 [Compound 31, 4-(4-Isopropylpiperazine-1-carbonyl)-12H-benzo[g]pyrido[2,1-b]quinazoline-12-one] | – | – | – | Biological activity (in words) (RPA194 [6]): inactive |
| CN(C)[C@H]1CCN(C(=O)c2cccn3c(=O)c4cc5ccccc5cc4nc23)C1 [Compound 33, 4-[(3S)-3-(Dimethylamino)pyrrolidine-1-carbonyl]-12H-benzo[g]pyrido[2,1-b]quinazoline-12-one] | – | – | – | Biological activity (in words) (RPA194 [6]; [8]): inactive |
| CCN(CC)C1CCN(C(=O)c2cccn3c(=O)c4cc5ccccc5cc4nc23)C1 (centres unmarked) [Compound 34, 4-[3-(Diethylamino)pyrrolidine-1-carbonyl]-12H-benzo[g]pyrido[2,1-b]quinazoline-12-one] | – | – | – | Biological activity (in words) (RPA194 [6]; [8]): inactive |
| O=C(NCCN1CCOCC1)c1cccn2c(=O)c3cc4ccccc4cc3nc12 [Compound 36, N-(2-Morpholinoethyl)-12-oxo-12H-benzo[g]pyrido[2,1-b]quinazoline-4-carboxamide] | less potent | little or no activity | – | – |
